Measurements published in patent US20190374554A1, “USE OF OXYGENATED CHOLESTEROL SULFATES (OCS) TO TREAT INFLAMMATORY SKIN DISEASE AND SKIN LESIONS” (Virginia Commonwealth University, priority 2016, published 2019).

Test system: psoriasis plaques
Assay: Proof of concept study of single intralesional doses in psoriasis patients, microplaque assay (LPSI)
Type: in vivo, human
Settings: single intralesional dose (3 injections of 100 μL); 14 day scoring period
Excerpt: The objectives of this study were: • To establish preliminary evidence for the efficacy of intralesionally injected 25HC3S in patients with psoriasis, as assessed by microplaque assay. • To assess the safety of 25HC3S in patients with psoriasis. • Compare evidence for the efficacy of different formulations of intralesionally injected 25HC3S.
• This trial was a double-blind, within-participant, randomized, vehicle and active comparator-controlled, single-dose study. Participants attended a screening visit within 28 days of dosing. A target plaque(s) of psoriasis was selected. • Day 0: each participant was treated with 2 different formulations of study drug, 2 vehicle formulations, one active comparator and one untreated area (6 treatments in total). Each treatment was administered to every participant as an intralesional injection, with the exception of the untreated area. • Participants were required to return for outpatient visits for microplaque assessments at Day 1, Day 2, Day 7 and Day 14. Treatment Formulations: Table 12 lists the formulated drug products and Table 13 lists the amounts injected.
Ten patients with mild to severe psoriasis were enrolled into this clinical trial after screening. […]
The effect of 25HC3S in psoriasis was assessed by the change of LPSI score as compared to vehicle or untreated in this microplaque assay. […]

For `C[C@H](CCCC(C)(C)O)[C@H]1CC[C@H]2[C@@H]3CC=C4C[C@@H](OS(=O)(=O)[O-])CC[C@]4(C)[C@H]3CC[C@]12C.[Na+]` [Formulation 25HC3S, 5-cholesten-3, 25-diol, 3-sulfate], the “effect on psoriatic plaques based on LPSI score” value was “exhibited efficacy in psoriatic plaques by reducing LPSI”.
